Measured values as given in US6541062B2, “Water-soluble soybean extracts” (priority 1999, dated 2003).
Converted amounts (≈) assume the structure as drawn.

What was measured:
[1] = solubility in water (stepwise addition of water, visual inspection); type: physicochemical; details: 25 °C, thermodynamic from solid
Procedure: A clear water-soluble soybean-based extract (2 liters) obtained in the same manner as described in Example 1. The extract solution was then lyophilized using a lyophilizer manufactured by Bertis Corp for 2 days at −85° C. under 10 mm Torr, resulting in 350 g of a pale yellow dry cake. […] The solubility was tested by first adding 1 g of the dried extract into 1 ml of pure water at 25° C. with agitation for 5 min. If the extract was not completely dissolved (visual inspection), another 1 ml of water was added and the resulting mixture agitated for 5 minutes at 25° C. Next, the mixture was visually inspected to determine if the extract had completely dissolved. If not, water at 25° C. was added in 1 ml increments and agitated for 5 minutes after each addition of water until the extract was completely dissolved by visual inspection. .

solubility in methanol = type: physicochemical; details: organic solvent or mixture, 25° C.

- solubility at 5 min [1]: ~1000 µg/mL (≈ 2.31 mM)
- solubility (solubility in methanol): ~5000 µg/mL (≈ 11.6 mM)
Compound: O=c1c(-c2ccc(O)cc2)coc2cc(O[C@@H]3O[C@H](CO)[C@@H](O)[C@H](O)[C@H]3O)cc(O)c12 [genistin]
